Legend:
[1] = test system: collagen-induced arthritis in mice; experiment: In vivo CIA model (collagen-induced arthritis); design: species or system DBA/1 mice; Average clinical symptom score: dose or concentration left out as unconfirmed; key to Total pathological score (both hind limbs): each of 4 joint-damage aspects scored 0-4, summed over both hind limbs; details: for Total pathological score (both hind limbs): day 38, Mean±SEM
From the text: A series of symptoms similar to human psoriatic arthritis, such as redness and swelling of the joint, articular cartilage damage, and capsula articularis damage are elicited in the model by injection of type II collagen to activate reactivity of B cells, T cell on bone collagen, and the activated B cells and T cells enter the joints to cause joint inflammation. During pre-clinical evaluation of candidate compounds for treating psoriatic arthritis, collagen-induced arthritis in mice is often used to evaluate the effectiveness.
The purpose of this experiment was to study the therapeutic effect of Compound 1 on collagen-induced arthritis in mice, so as to provide preclinical pharmacodynamic relevant information for subsequent clinical studies.
1. Type II collagen/complete Freund's adjuvant immunization
Preparation of acetic acid: Diluting acetic acid to 100 mM, which was filtered with 0.22 um filter membrane and stored at 4° C.
Bovine type II collagen solution: Dissolving bovine type II collagen (CII) in acetic acid solution, which was stored at 4° C. overnight.
Preparation of emulsion: Mixing the CII solution stored overnight with equal volume of the complete Freund's adjuvant and homogenize the mixture with high-speed homogenizer until the solution formed a stable emulsion.
Preparation of lipopolysaccharide (LPS): Weighing LPS, adding normal saline, and mixing until a stable solution with concentration of […] was formed.
The mice were randomly assigned to different treatment groups. The day of the first immunization was recorded as day 0, and the subsequent days were marked sequentially.
After DBA/1 mice were anesthetized with isoflurane, the prepared collagen emulsion was injected subcutaneously in the tail.
On day 23, 100 μl of LPS solution was injected intraperitoneally.
On day 27, when the average clinical score reached about 1, 60 mice with moderate onset were selected, and they were re-randomized according to body weight and score, with 10 mice in each group.
Dexamethasone as positive control drug in 0.3 mg/kg dose group is commonly used in the CIA model. In addition, the relevant dose design of Compound 1 and the control compound Apremilast were determined according to the results of earlier preliminary experiments. Group 1 was normal mice without any treatment; Group 2 was vehicle control group and was administered vehicle; Group 3 was administered dexamethasone at a dose of 0.3 mg/kg; Group 4 was administered Apremilast at a dose of 5 mg/kg; Group 5, Group 6, and Group 7 were administered Compound 1 with doses of 0.3, 1, and 3 mg/kg, respectively. Administration was given once a day for 11 days in total. The volume of intragastric administration was 10 ml/kg.
Clinical observation: From 7 days before immunization to 23 days after immunization, the basic health status and body weight changes of DBA/1 mice were observed daily (recorded once a week). After the 23rd day, the health status, morbidity and body weight change of the mice were observed daily (recorded at least three times a week) until the end of the experiment.
Clinical score: After LPS injection, the morbidities of mice were observed every day. After the onset of disease in mice (clinical symptoms of arthritis), they were scored according to severity of conditions (redness and swelling, joint deformation) according to 0-4 point standard, with a maximum score of 4 for each limb, and a maximum score of 16 for each animal. At least three times of scoring were performed a week.
Pathology: On day 38, the mouse was euthanized. The two posterior limbs of the mouse were taken, soaked with 10% formalin solution, decalcified with formic acid solution, embedded with paraffin, sectioned, stained with hematoxylin-eosin (HE), and observed with photomicrography. The degree of joint damage was evaluated in four aspects: inflammatory cell infiltration, pannus formation, cartilage injury and bone resorption, and scored according to 0-4 score standard. […]

[2] = test system: TNFα production in human peripheral blood mononuclear cells (hPBMC); experiment: Inhibition of LPS-induced TNFα production in hPBMC; format: cell-based
Procedure: The inhibitory activity of Compound 1 of lipopolysaccharide (LPS)-induced TNFα production in human peripheral blood mononuclear cells.
• 1. Collecting normal human whole blood, which was anticoagulated with EDTA-K2 anticoagulation tube; • 2. Separating PBMC with Ficoll density gradient centrifugation, counting and adjusting the cell concentration to 2×10^6/mL; • 3. To U-bottom 96-well plate were added 2×10^5 cells/well, LPS 1 ng/mL was added, various concentrations of compound at 100 μM, 10 μM, 1 μM, 100 nM, 10 nM, 1 nM, 100 pM, 10 pM, 200 μl system/well, in duplicated wells; • 4. Incubating for 24 h, collecting the supernatant; • 5. Detecting the level of TNFα in supernatant with ELISA, fitting the inhibition curve and calculating IC50 with Graphpad Prism software.

[3] = target: T1, phosphodiesterase 4B subtype (PDE4B) (Homo sapiens, UniProt Q07343); experiment: Inhibitory activity on PDE4B enzyme (fluorescence polarization); format: biochemical
T1 construct: amino acid 305 terminal; GST (N); made in house; host or cells: Sf9 insect cells (baculovirus)
T1 sequence (Q07343 305-736 limits assumed): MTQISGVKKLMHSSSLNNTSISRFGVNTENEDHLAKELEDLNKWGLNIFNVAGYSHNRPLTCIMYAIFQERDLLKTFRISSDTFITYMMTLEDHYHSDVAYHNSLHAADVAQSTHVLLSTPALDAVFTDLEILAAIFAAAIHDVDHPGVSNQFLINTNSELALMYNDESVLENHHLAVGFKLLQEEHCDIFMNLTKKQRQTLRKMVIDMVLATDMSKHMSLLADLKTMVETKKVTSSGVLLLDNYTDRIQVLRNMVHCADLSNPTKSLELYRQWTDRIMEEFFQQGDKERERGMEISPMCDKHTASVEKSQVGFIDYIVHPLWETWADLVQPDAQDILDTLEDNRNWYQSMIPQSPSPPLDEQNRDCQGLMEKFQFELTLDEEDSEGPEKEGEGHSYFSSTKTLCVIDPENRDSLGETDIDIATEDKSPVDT
Procedure: This biological experiment based on fluorescence polarization was used to determine AMP/GMP expression, that is, to show enzyme activity by tracking AMP/GMP antibody binding.
Experimental buffer solution: 10 mM Trihydroxymethyl aminomethane-hydrochloric acid buffer solution (Tris-HCl) (pH 7.5), 5 mM MgCl2, 0.01% Polyoxyethylene lauryl ether (Brij 35), 1 mM Dithiothreitol (DTT), and 1% DMSO.
Enzymes: Recombinant humanized PDE4B (Genebank Accession Number NM_002600; amino acid 305 terminal) was expressed with baculovirus in Sf9 insect cells using N-terminal GST tag. MW=78 kDa.
Enzyme substrate: 1 μM cAMP
Detection: Transcreener®AMP2/GMP2 antibody and AMP2/ GMP2 AlexaFluor633 tracing.
• 1. Dissolving the recombinant human PDE4B enzyme and enzyme substrate (1 μM cAMP) in freshly prepared experimental buffer; • 2. Transferring the above PDE4B enzyme buffer solution to reaction wells; • 3. Adding Compound 1 dissolved with 100% DMSO to the reaction well with PDE4B enzyme buffer solution via acoustic technology (echo 550 nanoliter range) and incubating for 10 min at room temperature; • 4. […] The range of fluorescence polarization determination is Ex/Em=620/688.
Data Analysis: The fluorescence polarization signal was converted into nM according to the AMP/GMP standard curve and the control % enzyme activity relative to the DMSO calculated by Excel software. […]

[4] = Mus musculus, po, 264 h, 0.3 mg/kg gavage once a day for 11 days, read-out: Inhibition rate of area under the clinical score curve (AUC) relative to vehicle control group

## C[C@@H]1C[C@H]2[C@@H]3CCC4=CC(=O)C=C[C@]4(C)[C@@]3(F)[C@@H](O)C[C@]2(C)[C@@]1(O)C(=O)CO [Dexamethasone, reference compound]
[1]; 0.3 mg/kg gavage once a day, from the 30th day until the end of the experiment, p<0.0001 vs vehicle
  Clinical score: 0
[1]; [4]
  inhibition at 0.3 mg/kg: 96.4%

## CCOc1cc([C@@H](CS(C)(=O)=O)n2c(=O)[nH]c3c(C)c(-c4ccccc4F)cnc32)ccc1OC [Compound 1]
[1]; 0.3 mg/kg gavage once a day for 11 days, 37th day, p<0.0001 vs vehicle
  Clinical average score: 3.6
[1]; 1 mg/kg and 3 mg/kg dose groups
  Arthritis pathology (conclusion): significant improvement
[1]; 1 mg/kg gavage once a day for 11 days, 37th day, p<0.001 vs vehicle
  Clinical average score: 4.3
[1]; 1 mg/kg gavage once a day for 11 days, p<0.05 vs vehicle
  Total pathological score (both hind limbs): 14.00±2.43
[1]; 3 mg/kg gavage once a day for 11 days, 37th day, p<0.0001 vs vehicle
  Clinical average score: 3.5
[1]; 3 mg/kg gavage once a day for 11 days, p<0.0001 vs vehicle
  Total pathological score (both hind limbs): 9.20±1.83
[1]; Compound 1 at 3 mg/kg vs Apremilast at 5 mg/kg
  Therapeutic effect (clinical score and arthritis pathological score) compared with Apremilast: better than that of Apremilast at 5 mg/kg
[1]; [4]
  inhibition at 0.3 mg/kg: 43.9%
[1]; Mus musculus, po, 264 h, 1 mg/kg gavage once a day for 11 days, read-out: Inhibition rate of area under the clinical score curve (AUC) relative to vehicle control group
  inhibition at 1 mg/kg: 39.4%
[1]; Mus musculus, po, 264 h, 3 mg/kg gavage once a day for 11 days, read-out: Inhibition rate of area under the clinical score curve (AUC) relative to vehicle control group
  inhibition at 3 mg/kg: 51.7%
[1]; three dose groups of 0.3, 1 and 3 mg/kg
  Symptoms of the collagen-induced arthritis (conclusion): significantly improved
[2]
  In vitro activity of inhibiting TNFα production in hPBMC (conclusion): excellent in vitro activity
[2]; Homo sapiens, PBMC, LPS 1 ng/mL, 24 h, TNFα in supernatant by ELISA
  IC50: 0.56 nM
[3]
  In vitro activity of inhibiting PDE4B (conclusion): excellent in vitro activity

## CCOc1cc([C@@H](CS(C)(=O)=O)N2C(=O)c3cccc(NC(C)=O)c3C2=O)ccc1OC [Apremilast, reference compound]
[1]; 5 mg/kg gavage once a day for 11 days, 37th day, p<0.001
  Decrease of average clinical symptom score compared to vehicle control group: 3.7
[1]; 5 mg/kg gavage once a day for 11 days, p<0.05 vs vehicle
  Total pathological score (both hind limbs): 13.90±1.89
[1]; Mus musculus, po, 264 h, 5 mg/kg gavage once a day for 11 days, read-out: Inhibition rate of area under the clinical score curve (AUC) relative to vehicle control group
  inhibition at 5 mg/kg: 41.3%
[1]; gavage once a day for 11 days, 37th day
  Average clinical symptom score: 4.2
